Measured values as given in patent US6974806B2, “Lipid-rich plaque inhibitors” (Takeda Pharmaceutical Company Limited, priority 2000, dated 2005).
Each block holds one molecule with its values, some of them ahead of it.

Columns and labels:
[1] = tested on: male apo-lipoprotein E deficient mouse; assay: Experiment 3: plaque regression, % lesion area and aortic cholesteryl ester content in apoE KO mouse; format: in vivo; settings: arteriosclerotic diet 8 weeks
Experimental: (§1) [Results] The lesion (plaque) area based on the vascular internal surface area was 31% in the group fed only the normal diet after 9th week. […] Experiment 2 [Method] […] Subsequently, from the 9th week to the 12th week, Compound B (0.5% methyl cellulose suspension: at 30 mg/kg/day) was administered orally, during the period only CE-2 powder, which is a normal diet, was given. The control group was maintained with only CE-2 diet. Each animal was sacrificed by decapitation 12 weeks after initiation of the experiment, the vessel from the aortic arch to the femoral bifurcation was isolated and opened in the direction of the vascular axis, stained with oil red O (Sigma Aldrich Japan), and subjected to an image analysis similarly to Experiment 1 to calculate the % lesion area based on the entire vascular internal wall area. The vessel specimen after the image analysis was homogenized in saline, and the amount of cholesteryl ester content in the aorta was measured in accordance with the method by Hara and Radin (Lipid Extract of tissues with a low-Toxicity solvent, Anal. Biochem., 90:420-426, 1978), that is, from the aorta stained with the oil red O was extracted the lipid by a glass homogenizer with hexane:isopropyl alcohol (3:2) and centrifuged. Subsequently, the supernatant was recovered and evaporated to dryness, and then dissolved in TESIT: dioxane (1:1). From this solution, its total cholesterol content (Cholesterol C test, WAKO) and the free cholesterol content (Free Cholesterol C test, WAKO) were examined. The data obtained were corrected for the wet weight of the aorta. The cholesteryl ester content (CE) was obtained by subtracting the free cholesterol content from the total cholesterol content. Since the sample, which was extracted with hexane:isopropyl alcohol and then evaporated to dryness, contained the oil red O which interferes with the absorption wavelength for the cholesterol measurement, the cholesterol content was calculated for each sample by subtracting the blank level (absorbance of oil red O in sample). [Results]
[Method] […] The control group was maintained with only CE-2 diet. Each animal was sacrificed by decapitation 12 weeks after initiation of the experiment, the vessel from the aortic arch to the femoral bifurcation was isolated and opened in the direction of the vascular axis, stained with oil red O (Sigma Aldrich Japan), and subjected to an image analysis similarly to Experiment 1 to calculate the % lesion area based on the entire vascular internal wall area. The vessel specimen after the image analysis was homogenized in saline, and the amount of cholesteryl ester content in the aorta was measured by an enzymatic method similarly to Experiment 2 described above. [Results]

[2] = tested on: male apo-lipoprotein E deficient mouse; assay: Experiment 1: plaque regression, % lesion area of aorta (oil red O) in apoE deficient mouse; format: in vivo; settings: arteriosclerotic diet 8 weeks, then 27 mg/kg/day mixed with normal diet, 9th to 12th week, control 31%, p<0.01
Source text: [Method] […] Subsequently, each of only CE-2 powder, which is a normal diet, (control group, number of animals=8) and CE-2 powder supplemented with Compound A (number of animals=8) was given ad libitum during the period from the 9th week to the 12th week. Each animal was sacrificed by decapitation 12 weeks after initiation of the experiment, the vessel from the aortic arch to the femoral bifurcation was isolated and opened in the direction of the vascular axis, stained with oil red O (Sigma Aldrich Japan), photographed closely using a medical Nikkor (NIKON), and the photograph was scanned using a scanner (GT-6000, EPSON) and the image was processed using Adobe Photoshop. Thus, the image of the vessel was trimmed and the red color was extracted and modified into a two-tone gradation.
The two-tone image was subjected to an NIH image (National Institute of Health) to count pixels, whereby calculating the % lesion area based on the entire surface area of the internal wall of the vessel.

[3] = tested on: male apo-lipoprotein E deficient mouse; assay: Experiment 2: plaque regression, % lesion area and aortic cholesteryl ester content in apoE KO mouse; format: in vivo; settings: arteriosclerotic diet 8 weeks, then normal diet with 30 mg/kg/day oral for 4 weeks
Experimental: as §1

Molecule: N-(2,6-dimethoxyphenyl)-N′-[3-(2-methylphenyl)-6,7-dihydro-5H-indeno[5,6-b]furan-2-yl]urea [Compound B]
aortic cholesteryl ester content ([1]; apoE KO mouse, then normal diet with 10 mg/kg/day oral (b869 says) for 4 weeks, n = 10): 5.30 ± 0.37 µg/mg
% lesion area ([1]; apoE KO mouse, then normal diet with 10 mg/kg/day oral (b869 says) for 4 weeks, n = 10, P < 0.05% (Dunnett's test)): 23.3 ± 1.8 %

Molecule: COc1cccc(OC)c1NC(=O)Cc1c(-c2ccccc2C)c2cc(Cl)ccc2oc1=O [Compound A, 2-[6-chloro-2-oxo-4-(2-methylphenyl)-2H-chromen-3-yl]-N-(2,6-dimethoxyphenyl)acetamide]
lesion (plaque) area based on the vascular internal surface area [2]: 15%

melting point: 198 to 200 °C
Molecule: O=C(Cc1c(-c2ccccc2)c2cc3c(cc2oc1=O)CCC3)Nc1ccc(Cl)cc1C(F)(F)F [Compound C, N-(4-chloro-2-trifluoromethylphenyl)-2-(2-oxo-4-phenyl-2,6,7,8-tetrahydrocyclopenta[g]chromen-3-yl)acetamide]
aortic cholesteryl ester content ([1]; apoE KO mice, then normal diet oral for 4 weeks (method: 10 mg/kg/day), control 6.83): 5.3 µg/mg
% lesion area ([1]; apoE KO mice, then normal diet oral for 4 weeks (method: 10 mg/kg/day), control 31.2%): 23.3%

Molecule: COc1cccc(OC)c1NC(=O)Nc1oc2cc3c(cc2c1-c1ccccc1C)CCC3 [Compound B, N-(2,6-dimethoxyphenyl)-N′-[3-(2-methylphenyl)-6,7-dihydro-5H-indeno[5,6-b]furan-2-yl]urea]
aortic cholesteryl ester content ([3]; apoE KO mice, control 9.42): 4.76 µg/mg
% lesion area ([3]; apoE KO mice, control 22.6%): 16.9%
% lesion area ([3]; apoE KO mouse, n = 4): 16.9 ± 1.6%
aortic cholesteryl ester content ([3]; apoE KO mouse, n = 4, P < 0.05% (Dunnett's test)): 4.76 ± 0.46 µg/mg

melting point: 216 to 219 °C
Molecule: CCOc1cccc(OCC)c1NC(=O)Cc1c(-c2ccccc2)c2cc3c(cc2oc1=O)CCC3 [Example 2]

melting point: 280 to 282 °C
Molecule: Cc1cc2c(-c3ccccc3)c(CC(=O)Nc3c(C(C)C)cccc3C(C)C)c(=O)oc2cc1Cl [Example 46]
